The record followed here is patent publication US20240400560A1, “BICYCLIC HETEROCYCLIC DERIVATIVE HAVING VIRAL GROWTH INHIBITORY ACTIVITY AND PHARMACEUTICAL COMPOSITION CONTAINING SAME” (Shionogi & Co., Ltd., priority 2021, published 2024).

The structures appear in SMILES notation.

This assay has as its target SARS-CoV-2 3CL protease (Severe acute respiratory syndrome coronavirus 2, UniProt P0DTD1). Put plainly: Inhibitory activity test against SARS-CoV-2 3CL proteases. The format is biochemical. To be noted: read-out: IC50 (50% SARS-CoV-2 3CL protease inhibitory concentration).
Regarding `COc1cc(-c2nc3[nH]c(=O)[nH]c3cc2Cl)cc2c1c(=O)n(Cc1ncn(C)n1)c(=O)n2Cc1cc(F)c(F)c(F)c1` [Compound I-0001], the IC50 is 5.3 nM.

`Cn1cnc(Cn2c(=O)c3c(F)cc(-c4cc5c(cc4Cl)NC(=O)C5)c(F)c3n(Cc3cc(F)c(F)c(F)c3)c2=O)n1` [Compound I-0002]: the IC50 turned out to be 6.2 nM.

On to `COc1cc(-c2nc3c(cc2Cl)NC(=O)C3)cc2c1c(=O)n(Cc1ncn(C)n1)c(=O)n2Cc1cc(F)c(F)c(F)c1` [Compound I-0005], for which the IC50 was 10 nM.

Turning to `Cn1cnc(Cn2c(=O)c3c(F)cc(-c4cc5cn[nH]c5cc4Cl)c(F)c3n(Cc3cc(F)c(F)c(F)c3)c2=O)n1` [Compound I-0006], the IC50 was under 100 nM.

Turning to `Cn1cnc(Cn2c(=O)c3c(F)cc(-c4nc5c(cc4Cl)NC(=O)C54CC4)cc3n(Cc3cc(F)c(F)c(F)c3)c2=O)n1` [Compound I-0008], the IC50 was determined as 21 nM.

Turning to `Cn1cnc(Cn2c(=O)c3c(F)cc(-c4nc5c(cc4Cl)NC(=O)C5)cc3n(Cc3cc(F)c(F)c(F)c3)c2=O)n1` [Compound I-0009], the IC50 was 21 nM.

As to `Cc1cncc(-n2c(=O)c3c(Cl)cc(-c4cc(C#N)ccc4Cl)cc3n(Cc3cc(F)c(F)c(F)c3)c2=O)c1` [Compound I-0012], the IC50 was under 100 nM.

For `Cc1cncc(-n2c(=O)c3c(Cl)cc(-c4cc(CO)ccc4Cl)cc3n(Cc3ccc(F)c(C#N)c3)c2=O)c1` [Compound I-0014], the IC50 amounted to 30 nM.

For the compound `Cc1cncc(-n2c(=O)c3c(Cl)cc(-c4cc(CO)ccc4Cl)cc3n(Cc3cc(F)c(F)c(F)c3)c2=O)c1` [Compound I-0016], the IC50 is under 100 nM.

`COc1cc(-c2cc(C#N)ccc2Cl)cc2c1c(=O)n(-c1cncc(C)c1)c(=O)n2Cc1cc(F)c(F)c(F)c1` [Compound I-0026]: the IC50 is 6.5 nM.

Turning to `COc1cc(-c2cc(CO)ccc2Cl)cc2c1c(=O)n(-c1cncc(C)c1)c(=O)n2Cc1cc(F)c(F)c(F)c1` [Compound I-0030], the IC50 was 8.5 nM.

On to `COc1nc(-c2cc3c(cc2Cl)NC(=O)C3)cc2c1c(=O)n(Cc1ncn(C)n1)c(=O)n2Cc1cc(F)c(F)c(F)c1` [Compound I-0032], for which the IC50 worked out at 9.4 nM.

Regarding `Cc1cncc(-n2c(=O)c3c(F)cc(-c4cc(C#N)ccc4Cl)cc3n(Cc3ccc(F)c(C#N)c3)c2=O)c1` [Compound I-0050], the IC50 was under 100 nM.

In the case of `COc1cc(-c2cc3c(cc2Cl)NC(=O)C3)cc2c1c(=O)n(-c1cncc(C)c1)c(=O)n2Cc1ccc(F)c(C#N)c1` [Compound I-0060], the IC50 is 2.7 nM.

`COc1cc(-c2cc(C(C)(C)O)ccc2Cl)cc2c1c(=O)n(-c1cncc(C)c1)c(=O)n2Cc1ccc(F)c(C#N)c1` [Compound I-0061]: the IC50 is 2.9 nM.

Regarding `COc1cc(-c2cc(C(C)=O)ccc2Cl)cc2c1c(=O)n(-c1cncc(C)c1)c(=O)n2Cc1ccc(F)c(C#N)c1` [Compound I-0062], the IC50 was 3.1 nM.

For `COc1cc(-c2c(Cl)ccc3ncccc23)cc2c1c(=O)n(-c1cncc(C)c1)c(=O)n2Cc1ccc(F)c(C#N)c1` [Compound I-0068], the IC50 was determined as 5.8 nM.

As for `COc1cc(-c2cc(C(C)(C)O)ccc2Cl)cc2c1c(=O)n(-c1cncc(C)c1)c(=O)n2Cc1cc(F)c(F)c(F)c1` [Compound I-0069], the IC50 came to 6 nM.

`COc1cc(-c2cc(NS(C)(=O)=O)ccc2Cl)cc2c1c(=O)n(-c1cncc(C)c1)c(=O)n2Cc1cc(F)c(F)c(F)c1` [Compound I-0070]: the IC50 turned out to be 9.8 nM.

In the case of `O=C1Cc2cc(-c3cc(F)c4c(=O)n(-c5cncc(Cl)c5)c(=O)n(Cc5cc(F)c(F)c(F)c5)c4c3)c(Cl)cc2N1` [Compound I-0071], the IC50 is under 100 nM.

`COc1cc(-c2cc(C(C)(C)O)ccc2Cl)cc2c1c(=O)n(-c1cncc(Cl)c1)c(=O)n2Cc1cc(F)c(F)c(F)c1` [Compound I-0075]: the IC50 is 18 nM.

Consider `O=C1Cc2cc(-c3cc(F)c4c(=O)n(-c5cncc(Cl)c5)c(=O)n(Cc5cc(Cl)c(F)cn5)c4c3)c(Cl)cc2N1` [Compound I-0077], for which the IC50 is under 100 nM.

Regarding `COc1cc(-c2nc(NS(C)(=O)=O)ccc2Cl)cc2c1c(=O)n(-c1cncc(C)c1)c(=O)n2Cc1cc(F)c(F)c(F)c1` [Compound I-0078], the IC50 is under 100 nM.

`COc1cc(-c2cc(NS(C)(=O)=O)ccc2Cl)cc2c1c(=O)n(-c1cncc(Cl)c1)c(=O)n2Cc1cc(F)c(F)c(F)c1` [Compound I-0079]: the IC50 is under 100 nM.

Consider `Cn1cnc(Cn2c(=O)c3c(F)cc(-c4cc(-c5nnc(N)o5)ccc4Cl)cc3n(Cc3cc(F)c(F)c(F)c3)c2=O)n1` [Compound I-0080], for which the IC50 worked out at 34 nM.

For `COc1cc(-c2cc3c[nH]nc3cc2Cl)cc2c1c(=O)n(Cc1ncn(C)n1)c(=O)n2Cc1cc(F)c(F)c(F)c1` [Compound I-0115], the IC50 came out at 9.3 nM.

Turning to `Cn1cnc(Cn2c(=O)c3c(Cl)cc(-c4cc5c(cc4Cl)NC(=O)C5)cc3n(Cc3cc(Cl)c(F)cn3)c2=O)n1` [Compound I-0117], the IC50 was under 100 nM.

Consider `COc1cc(-c2cc(S(N)(=O)=O)ccc2Cl)cc2c1c(=O)n(Cc1ncn(C)n1)c(=O)n2Cc1cc(F)c(F)c(F)c1` [Compound I-0118], for which the IC50 is under 100 nM.

Take `Cn1cnc(Cn2c(=O)c3c(F)cc(-c4cc5c(cc4Cl)NC(=O)C54CC4)cc3n(Cc3cc(F)c(F)c(F)c3)c2=O)n1` [Compound I-0119]: the IC50 came out at 23 nM.

Consider `COc1cc(-c2cc(-c3ncc[nH]3)ccc2Cl)cc2c1c(=O)n(-c1cncc(Cl)c1)c(=O)n2Cc1ccc(F)c(C#N)c1` [Compound I-0120], for which the IC50 was under 100 nM.

`Cn1cnc(Cn2c(=O)c3ncc(-c4cc5c(cc4Cl)NC(=O)C5)cc3n(Cc3cc(F)c(F)c(Cl)c3)c2=O)n1` [Compound I-0121]: the IC50 is under 100 nM.

Turning to `COc1cc(-c2cc(S(C)(=O)=O)ccc2Cl)cc2c1c(=O)n(Cc1ncn(C)n1)c(=O)n2Cc1cc(F)c(F)c(F)c1` [Compound I-0122], the IC50 amounted to 27 nM.

With `COc1cc(-c2cc(-c3ncc[nH]3)ccc2Cl)cc2c1c(=O)n(Cc1ncn(C)n1)c(=O)n2Cc1cc(F)c(F)c(F)c1` [Compound I-0123], the IC50 is under 100 nM.

Regarding `COc1cc(-c2c(Cl)ccc3ncccc23)cc2c1c(=O)n(Cc1ncn(C)n1)c(=O)n2Cc1cc(F)c(F)c(F)c1` [Compound I-0124], the IC50 is under 100 nM.

For `COc1cc(-c2cc3c(cc2Cl)NC(=O)CC3)cc2c1c(=O)n(Cc1ncn(C)n1)c(=O)n2Cc1cc(F)c(F)c(F)c1` [Compound I-0125], the IC50 was 32 nM.

Take `COc1cc(-c2cc(NS(C)(=O)=O)ccc2Cl)cc2c1c(=O)n(Cc1ncn(C)n1)c(=O)n2Cc1cc(F)c(F)c(F)c1` [Compound I-0136]: the IC50 was under 100 nM.

For `O=c1[nH]cccc1Cn1c(=O)c2ccc(N3C[C@H]4C[C@@H]3CN4)cc2n(Cc2cc(F)c(F)c(F)c2)c1=O` [Compound I-0140], the IC50 was found to be 1.3 nM.

Take `O=c1[nH]cccc1Cn1c(=O)c2ccc(N3C[C@@H]4C[C@H]3CN4)cc2n(Cc2cc(F)c(F)c(F)c2)c1=O` [Compound I-0141]: the IC50 is under 100 nM.

For `NC1CCN(c2ccc3c(=O)n(Cc4ccc[nH]c4=O)c(=O)n(Cc4cc(F)c(F)c(F)c4)c3c2)C1` (stereo not shown) [Compound I-0142], the IC50 amounted to 25 nM.

For the compound `COc1cc(-c2cc3c(cc2Cl)NC(=O)C3)cc2c1c(=O)n(-c1cncc(C)c1)c(=O)n2Cc1cc(F)c(F)c(C#N)c1` [Compound I-0161], the IC50 was 0.75 nM.
